Source: patent publication US12415987B2, “Methods and composition for producing and using immune cells and stem cells for cell-based therapies” (Angeles Therapeutics, Inc., priority 2016, dated 2025)

Tests used:
Type in all cases: cell-based, human
[1] = test system: T cells; experiment: Chemotherapeutic selection of T cells: cell death by propidium iodide staining;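 note: CD3 microbead-isolated T cells cultured with chemotherapy drugs, dead cells scored as propidium iodide-positive by flow cytometry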
Description: (§4) T cells were isolated using CD3 microbeads. Cells were resuspended in T cell culture medium and treated under the following conditions. • 1. High dose Vincristine Treatment: Cells were treated with Vincristine (Sigma) at doses of 100, 250, 500, 750, 1000 ng/ml for 24 h. The following day, the medium was changed and cells cultured in Vincristine-free medium. • 2. Intermediate Dose Vincristine Treatment: Cells were treated with vincristine at intermediate doses of 5, 10, 20, 30, 50 ng/ml with continuous exposure of the drug thereafter. • 3. Low dose Vincristine Treatment: Cells were treated with vincristine at low doses 0.5, 1, 2, 2.5, 3 ng/ml with continuous exposure to the drug thereafter.
(§5) Cells were treated with Etoposide at dose 100, 500, 1000 nM • 6. Cells were treated with Adriamycin (doxorubicin) at 0.1, 0.5, 1 μg/ml
(§6) T cells treated with intermediate and high dose of vincristine were checked for Pgp^+ enrichment by DiOC2(3) efflux assay and cell death by Propidium iodide staining after 2 days of treatment. Cells were analyzed by flow cytometry.

[2] = test system: Pgp^+ T cells; experiment: Chemotherapeutic selection of T cells: Pgp+ enrichment by DiOC2(3) efflux assay; details: for % pgp+ (out of live cells): 8 days post-treatment; for % Pgp^+ (DiOC2(3)-dull) (out of live cells): 2 days post-treatment; for % Pgp+ (DiOC2(3)-dull) (gated on live cells): 7 days post-treatment;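 for all read-outs here: CD3-isolated T cells exposed to chemotherapeutics, then loaded with DiOC2(3) and left to efflux dye, PI stained, flow cytometry, Pgp+ cells read as DiOC2(3)-dull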
Description: Half (6 million) of the T cells were left untreated while the remaining half were treated with 10 μM of TH9402 compound. Cells were incubated at 37° C. in a water bath in dark for 40 min, washed with T-cell medium and then resuspended in TH9402-free T-cell medium. Cells were allowed to efflux TH9402 at 37° C. in dark in 10 ml of T cell medium for 2 h. Cells were centrifuged and re-suspended in fresh medium. Each sample was then plated in 2 wells of two different 6-well plates. One plate was left unexposed to light and the second plate was exposed for 1 h to light (1000×10 Lux units) from an LED lamp. […] After light exposure, cells were incubated in the XVIVO T cell medium with 5 ng/ml IL7 at 37° C. for 2 days in a 5% CO2 incubator. After 2 days, an aliquot of the cells were stained at 4° C. for 40 min with DiOC2(3) (60 ng/ml) in 10 ml RPMI with 10% FBS medium. DiOC2(3) is a known substrate of Pgp. Cells were centrifuged, washed, resuspended in 10 ml of dye-free RPMI-10% FBS medium to efflux dye at 37° C. for 90 min. After Dye efflux, the cells were stained with Propidium iodide (PI) and examined by flow cytometry.
as §4, §5, §6

[3] = test system: T cells; experiment: Photodynamic cell therapy with TH9402: live T cells by flow cytometry / propidium iodide; details: for % live cells (Propidium iodide negative): after 9 days
Description: (§1) T cells were isolated using PAN T-cell isolation kit (Miltenyi cat no. 130-096-535) from buffy coat preparation following Ficoll-Hypaque separation and RBC lysis as described above. 12 million T cells were resuspended at 1 million cells/ml in XVIVO T cell medium (Lonza) supplemented with 5 ng/ml IL7. Half (6 million) of the T cells were left untreated while the remaining half were treated with 10 μM of TH9402 compound. Cells were incubated at 37° C. in a water bath in dark for 40 min, washed with T-cell medium and then resuspended in TH9402-free T-cell medium. Cells were allowed to efflux TH9402 at 37° C. in dark in 10 ml of T cell medium for 2 h. Cells were centrifuged and re-suspended in fresh medium. Each sample was then plated in 2 wells of two different 6-well plates. One plate was left unexposed to light and the second plate was exposed for 1 h to light (1000×10 Lux units) from an LED lamp. Alternatively, light treatment can be achieved by exposure to a fluorescent light-scanning device (PDCT-Xerox Series 4, Theratechnologies) delivering 5 J/cm^2 at wavelength of 514 nm. After light exposure, cells were incubated in the XVIVO T cell medium with 5 ng/ml IL7 at 37° C. for 2 days in a 5% CO2 incubator. After 2 days, an aliquot of the cells were stained at 4° C. for 40 min with DiOC2(3) (60 ng/ml) in 10 ml RPMI with 10% FBS medium. DiOC2(3) is a known substrate of Pgp. Cells were centrifuged, washed, resuspended in 10 ml of dye-free RPMI-10% FBS medium to efflux dye at 37° C. for 90 min. After Dye efflux, the cells were stained with Propidium iodide (PI) and examined by flow cytometry. […] Furthermore, in the group that was treated with the TH9402 compound and then exposed to light, there was further enrichment for Pgp-expressing T cells (from 10% to 80%).
(§2) After 6 days, 250 μl cell aliquot from T cells were stained with DiOC2(3), allowed to efflux the dye and then stained with CD62L-APC, a marker present on human memory stem T cells (TSCM) with stem like properties.
(§3) After 9 days, 1 ml cell aliquot from T cells were stained with DiOC2(3), allowed to efflux the dye and then stained with CD62L-APC, a marker present on human memory stem T cells (TSCM) with stem like properties. Cells were then analyzed by flow cytometry. The % of cells in the different fractions are shown in FIG. 2 and the following table which show there is a significant decline in cell viability following exposure to light in both TH9402-treated and untreated cells.

[4] = test system: PBMC; experiment: Photodynamic TH9402 experiment repeated with PBMC; details: PBMC rather than purified T cells
[5] = test system: Pgp-expressing T cells; experiment: Photodynamic cell therapy with TH9402: Pgp+ T cells by DiOC2(3) efflux (and CD62L staining); details: for % Pgp^+ cells (DiOC2(3)-dull): after 2 days
Description: as §1, §2, §3

[6] = 10 μM TH9402, 1 h exposure to light, after 6 days
[7] = 10 μM TH9402, 1 h exposure to light
[8] = 10 μM TH9402, unexposed to light, after 6 days
[9] = 10 μM TH9402, unexposed to light
[10] = 10 μM TH9402, 1 h exposure to light, after 9 days
[11] = 10 μM TH9402, unexposed to light, after 9 days
[12] = 100 ng/ml for 24 h then drug-free medium
[13] = 250 ng/ml for 24 h then drug-free medium
[14] = 500 ng/ml for 24 h then drug-free medium
[15] = 750 ng/ml for 24 h then drug-free medium
[16] = 1 μg/ml for 24 h then drug-free medium

COc1cccc2c1C(=O)c1c(O)c3c(c(O)c1C2=O)C[C@@](O)(C(=O)CO)C[C@@H]3O[C@H]1C[C@H](N)[C@H](O)[C@H](C)O1 [Adriamycin, doxorubicin]
% Cell Death (PI+ cells) ([1]; 8 days post-treatment, 0.1 μg/ml): 5%
% Cell Death (PI+ cells) ([1]; 8 days post-treatment, 0.5 μg/ml): 7%
% Cell Death (PI+ cells) ([1]; 8 days post-treatment, 1 μg/ml): 12%
enrichment of Pgp^+ or DiOC2(3)-dull cells (in words) ([2]; 1 μg/ml, after 8 days of treatment): significant enrichment
% pgp+ (out of live cells) ([2]; 0.1 μg/ml): 16%
% pgp+ (out of live cells) ([2]; 0.5 μg/ml): 16%
% pgp+ (out of live cells) ([2]; 1 μg/ml): 27%

COc1cc([C@@H]2c3cc4c(cc3[C@@H](O[C@@H]3O[C@@H]5CO[C@@H](C)O[C@H]5[C@H](O)[C@H]3O)[C@H]3COC(=O)[C@H]23)OCO4)cc(OC)c1O [Etoposide]
% Cell Death (PI+ cells) ([1]; 8 days post-treatment, 0.1 uM): 5%
% Cell Death (PI+ cells) ([1]; 8 days post-treatment, 1 uM): 5%
% Cell Death (PI+ cells) ([1]; 8 days post-treatment, 0.5 unM): 4%
% pgp+ (out of live cells) ([2]; 0.1 uM): 15%
% pgp+ (out of live cells) ([2]; 1 uM): 15%
% pgp+ (out of live cells) ([2]; 0.5 unM): 16%

CO[C@H]1C[C@@H]2CC[C@@H](C)[C@@](O)(O2)C(=O)C(=O)N2CCCC[C@H]2C(=O)O[C@H]([C@H](C)C[C@@H]2CC[C@@H](O)[C@H](OC)C2)CC(=O)[C@H](C)/C=C(\C)[C@@H](O)[C@@H](OC)C(=O)[C@H](C)C[C@H](C)/C=C/C=C/C=C/1C [Rapamycin]
% Cell Death (PI+ cells) ([1]; 8 days post-treatment, 100 ng/ml): 11%
% pgp+ (out of live cells) ([2]; 100 ng/ml): 15%

COC(=O)c1ccccc1-c1c2ccc(=N)c(Br)c-2oc2c(Br)c(N)ccc12 [TH9402]
% live cells (P1) ([3]; 10 μM TH9402, 1 h exposure to light, after 2 days): 10%
% live cells (P1) [3, 6]: 14%
% live cells (Propidium iodide negative) [3, 7]: 27%
% live cells (P1) ([3]; 10 μM TH9402, unexposed to light, after 2 days): 78%
% live cells (P1) [3, 8]: 75%
% live cells (Propidium iodide negative) [3, 9]: 79%
enrichment of Pgp-expressing cells, experiment repeated with PBMC [4]: Essentially similar results
% Pgp^+ cells (DiOC2(3)-dull) [5, 7]: 80%
% Pgp^+ (DiOC2(3)-dull cells (based on dye efflux) (gated on live cells)) [5, 6]: 70%
% Pgp^+ (DiOC2(3)-dull), CD62L+ cells (gated on live cells) [5, 6]: 69%
% Pgp^+ (DiOC2(3)-dull cells (based on dye efflux) (gated on live cells)) [5, 10]: 79%
% Pgp^+ (DiOC2(3)-dull), CD62L+ cells (gated on live cells) [5, 10]: 67%
% Pgp^+ cells (DiOC2(3)-dull) [5, 9]: 10%
% Pgp^+ (DiOC2(3)-dull cells (based on dye efflux) (gated on live cells)) [5, 8]: 4%
% Pgp^+ (DiOC2(3)-dull), CD62L+ cells (gated on live cells) [5, 8]: 2%
% Pgp^+ (DiOC2(3)-dull cells (based on dye efflux) (gated on live cells)) [5, 11]: 45%
% Pgp^+ (DiOC2(3)-dull), CD62L+ cells (gated on live cells) [5, 11]: 21%

COc1ccc(CCN(C)CCCC(C#N)(c2ccc(OC)c(OC)c2)C(C)C)cc1OC (stereo not drawn) [Verapamil]
% Cell Death (PI+ cells) ([1]; 8 days post-treatment, 1 uM): 4%
% Cell Death (PI+ cells) ([1]; 8 days post-treatment, 5 uM): 3%
% Cell Death (PI+ cells) ([1]; 8 days post-treatment, 10 uM): 3%

CC[C@]1(O)C[C@H]2CN(CCc3c([nH]c4ccccc34)[C@@](C(=O)OC)(c3cc4c(cc3OC)N(C=O)[C@H]3[C@@](O)(C(=O)OC)[C@H](OC(C)=O)[C@]5(CC)C=CCN6CC[C@]43[C@@H]65)C2)C1 [Vincristine]
% Cell Death (PI+ cells) ([1]; 2 days post-treatment, 5 ng/ml, continuous exposure): 13%
% Cell Death (PI+ cells) ([1]; 2 days post-treatment, 10 ng/ml, continuous exposure): 15%
% Cell Death (PI+ cells) ([1]; 2 days post-treatment, 20 ng/ml, continuous exposure): 15%
% Cell Death (PI+ cells) ([1]; 2 days post-treatment, 30 ng/ml, continuous exposure): 20%
% Cell Death (PI+ cells) ([1]; 2 days post-treatment, 50 ng/ml, continuous exposure): 15%
% Cell Death (PI+ cells) ([1]; 2 days post-treatment, 100 ng/ml for 24 h then drug-free medium): 28%
% Cell Death (PI+ cells) ([1]; 2 days post-treatment, 250 ng/ml for 24 h then drug-free medium): 31%
% Cell Death (PI+ cells) ([1]; 2 days post-treatment, 500 ng/ml for 24 h then drug-free medium): 27%
% Cell Death (PI+ cells) ([1]; 2 days post-treatment, 750 ng/ml for 24 h then drug-free medium): 30%
% Cell Death (PI+ cells) ([1]; 2 days post-treatment, 1 μg/ml for 24 h then drug-free medium): 31%
% Cell Death (PI+ cells) ([1]; 7 days post-treatment, 0.5 ng/ml, continuous exposure): 10%
% Cell Death (PI+ cells) ([1]; 7 days post-treatment, 1 ng/ml, continuous exposure): 12%
% Cell Death (PI+ cells) ([1]; 7 days post-treatment, 2 ng/ml, continuous exposure): 8%
% Cell Death (PI+ cells) ([1]; 7 days post-treatment, 2.5 ng/ml, continuous exposure): 10%
% Cell Death (PI+ cells) ([1]; 7 days post-treatment, 3 ng/ml, continuous exposure): 14%
% Cell Death (PI+ cells) ([1]; 7 days post-treatment, 5 ng/ml, continuous exposure): 9%
% Cell Death (PI+ cells) ([1]; 7 days post-treatment, 10 ng/ml, continuous exposure): 9%
% Cell Death (PI+ cells) ([1]; 7 days post-treatment, 20 ng/ml, continuous exposure): 9%
% Cell Death (PI+ cells) ([1]; 7 days post-treatment, 50 ng/ml, continuous exposure): 14%
% Cell Death (PI+ cells) ([1]; 7 days post-treatment, 100 ng/ml for 24 h then drug-free medium): 16%
% Cell Death (PI+ cells) ([1]; 7 days post-treatment, 250 ng/ml for 24 h then drug-free medium): 25%
% Cell Death (PI+ cells) ([1]; 7 days post-treatment, 500 ng/ml for 24 h then drug-free medium): 26%
% Cell Death (PI+ cells) ([1]; 7 days post-treatment, 750 ng/ml for 24 h then drug-free medium): 29%
% Cell Death (PI+ cells) ([1]; 7 days post-treatment, 1 μg/ml for 24 h then drug-free medium): 23%
% Pgp^+ (DiOC2(3)-dull) (out of live cells) ([2]; 5 ng/ml, continuous exposure): 8%
% Pgp^+ (DiOC2(3)-dull) (out of live cells) ([2]; 10 ng/ml, continuous exposure): 9%
% Pgp^+ (DiOC2(3)-dull) (out of live cells) ([2]; 20 ng/ml, continuous exposure): 9%
% Pgp^+ (DiOC2(3)-dull) (out of live cells) ([2]; 30 ng/ml, continuous exposure): 11%
% Pgp^+ (DiOC2(3)-dull) (out of live cells) ([2]; 50 ng/ml, continuous exposure): 10%
% Pgp^+ (DiOC2(3)-dull) (out of live cells) [2, 12]: 11%
% Pgp^+ (DiOC2(3)-dull) (out of live cells) [2, 13]: 11%
% Pgp^+ (DiOC2(3)-dull) (out of live cells) [2, 14]: 13%
% Pgp^+ (DiOC2(3)-dull) (out of live cells) [2, 15]: 14%
% Pgp^+ (DiOC2(3)-dull) (out of live cells) [2, 16]: 14%
% Pgp+ (DiOC2(3)-dull) (gated on live cells) ([2]; 0.5 ng/ml, continuous exposure): 7%
% Pgp+ (DiOC2(3)-dull) (gated on live cells) ([2]; 1 ng/ml, continuous exposure): 7%
% Pgp+ (DiOC2(3)-dull) (gated on live cells) ([2]; 2 ng/ml, continuous exposure): 7%
% Pgp+ (DiOC2(3)-dull) (gated on live cells) ([2]; 2.5 ng/ml, continuous exposure): 7%
% Pgp+ (DiOC2(3)-dull) (gated on live cells) ([2]; 3 ng/ml, continuous exposure): 9%
% Pgp+ (DiOC2(3)-dull) (gated on live cells) ([2]; 5 ng/ml, continuous exposure): 8%
% Pgp+ (DiOC2(3)-dull) (gated on live cells) ([2]; 10 ng/ml, continuous exposure): 10%
% Pgp+ (DiOC2(3)-dull) (gated on live cells) ([2]; 20 ng/ml, continuous exposure): 10%
% Pgp+ (DiOC2(3)-dull) (gated on live cells) ([2]; 50 ng/ml, continuous exposure): 9%
% Pgp+ (DiOC2(3)-dull) (gated on live cells) [2, 12]: 13%
% Pgp+ (DiOC2(3)-dull) (gated on live cells) [2, 13]: 11%
% Pgp+ (DiOC2(3)-dull) (gated on live cells) [2, 14]: 9%
% Pgp+ (DiOC2(3)-dull) (gated on live cells) [2, 15]: 10%
% Pgp+ (DiOC2(3)-dull) (gated on live cells) [2, 16]: 18%
enrichment of Pgp^+ cells (in words) ([2]; higher dose treatments, after 2 days): modest enrichment
